The results in this text go back to patent publication US11180474B2 (BRISTOL-MYERS SQUIBB COMPANY, priority 2016, dated 2021).

The target of one experiment is T1, human TLR7 (Homo sapiens, UniProt Q9NYK1).
T1 construct: host or cells: HEK-Blue cells
T1 sequence (Q9NYK1 27-1049): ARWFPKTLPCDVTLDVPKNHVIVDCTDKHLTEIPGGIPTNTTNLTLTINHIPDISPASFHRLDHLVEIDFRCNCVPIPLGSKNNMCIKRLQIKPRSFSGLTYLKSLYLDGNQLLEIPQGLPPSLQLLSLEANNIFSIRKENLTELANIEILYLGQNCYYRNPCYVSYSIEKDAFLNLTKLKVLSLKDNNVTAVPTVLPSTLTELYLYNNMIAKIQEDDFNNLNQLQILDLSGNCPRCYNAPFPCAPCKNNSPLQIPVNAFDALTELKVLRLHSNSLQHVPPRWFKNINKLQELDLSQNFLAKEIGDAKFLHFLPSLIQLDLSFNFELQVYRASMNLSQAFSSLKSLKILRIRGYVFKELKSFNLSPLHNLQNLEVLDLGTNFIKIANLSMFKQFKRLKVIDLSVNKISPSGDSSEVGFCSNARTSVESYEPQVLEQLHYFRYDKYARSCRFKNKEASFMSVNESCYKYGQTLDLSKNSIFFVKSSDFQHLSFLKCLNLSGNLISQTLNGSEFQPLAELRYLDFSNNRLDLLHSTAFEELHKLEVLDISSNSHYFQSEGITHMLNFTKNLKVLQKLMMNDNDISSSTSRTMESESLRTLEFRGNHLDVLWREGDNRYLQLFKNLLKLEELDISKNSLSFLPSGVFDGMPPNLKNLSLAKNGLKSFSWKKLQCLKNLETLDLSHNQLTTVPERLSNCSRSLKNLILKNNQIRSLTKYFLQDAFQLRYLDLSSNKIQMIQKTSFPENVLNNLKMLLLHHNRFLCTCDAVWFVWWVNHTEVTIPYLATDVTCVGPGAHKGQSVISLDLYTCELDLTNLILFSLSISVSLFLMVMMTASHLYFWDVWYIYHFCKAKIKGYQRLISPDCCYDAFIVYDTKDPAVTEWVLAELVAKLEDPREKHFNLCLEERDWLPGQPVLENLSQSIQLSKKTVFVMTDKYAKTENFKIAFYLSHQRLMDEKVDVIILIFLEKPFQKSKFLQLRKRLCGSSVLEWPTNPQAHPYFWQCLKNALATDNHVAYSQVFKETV
The experiment is described as follows: TLR7 inhibition reporter assay (HEK-Blue cells, SEAP reporter, gardiquimod stimulation). Format: cell-based. The settings on record: HEK-Blue cells overexpressing human TLR7, gardiquimod 7.5 μM. The gist of the method:
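SEAP readout via HEK-Blue Detection medium after 22 h at 37 °C, 5% CO2 defines inhibition, normalized between agonist-plus-DMSO wells and a reference inhibitor. Compound dose range 0.05 nM–50 μM; TLR7 cells at 15,000/well (gardiquimod), TLR8 at 20,000/well (R848).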
Background: A reporter such as luciferase makes a cellular process visible.

The target of a further experiment is T2, human TLR9 (Homo sapiens, UniProt Q9NR96).
T2 construct: host or cells: HEK-Blue cells
T2 sequence (Q9NR96 26-1032): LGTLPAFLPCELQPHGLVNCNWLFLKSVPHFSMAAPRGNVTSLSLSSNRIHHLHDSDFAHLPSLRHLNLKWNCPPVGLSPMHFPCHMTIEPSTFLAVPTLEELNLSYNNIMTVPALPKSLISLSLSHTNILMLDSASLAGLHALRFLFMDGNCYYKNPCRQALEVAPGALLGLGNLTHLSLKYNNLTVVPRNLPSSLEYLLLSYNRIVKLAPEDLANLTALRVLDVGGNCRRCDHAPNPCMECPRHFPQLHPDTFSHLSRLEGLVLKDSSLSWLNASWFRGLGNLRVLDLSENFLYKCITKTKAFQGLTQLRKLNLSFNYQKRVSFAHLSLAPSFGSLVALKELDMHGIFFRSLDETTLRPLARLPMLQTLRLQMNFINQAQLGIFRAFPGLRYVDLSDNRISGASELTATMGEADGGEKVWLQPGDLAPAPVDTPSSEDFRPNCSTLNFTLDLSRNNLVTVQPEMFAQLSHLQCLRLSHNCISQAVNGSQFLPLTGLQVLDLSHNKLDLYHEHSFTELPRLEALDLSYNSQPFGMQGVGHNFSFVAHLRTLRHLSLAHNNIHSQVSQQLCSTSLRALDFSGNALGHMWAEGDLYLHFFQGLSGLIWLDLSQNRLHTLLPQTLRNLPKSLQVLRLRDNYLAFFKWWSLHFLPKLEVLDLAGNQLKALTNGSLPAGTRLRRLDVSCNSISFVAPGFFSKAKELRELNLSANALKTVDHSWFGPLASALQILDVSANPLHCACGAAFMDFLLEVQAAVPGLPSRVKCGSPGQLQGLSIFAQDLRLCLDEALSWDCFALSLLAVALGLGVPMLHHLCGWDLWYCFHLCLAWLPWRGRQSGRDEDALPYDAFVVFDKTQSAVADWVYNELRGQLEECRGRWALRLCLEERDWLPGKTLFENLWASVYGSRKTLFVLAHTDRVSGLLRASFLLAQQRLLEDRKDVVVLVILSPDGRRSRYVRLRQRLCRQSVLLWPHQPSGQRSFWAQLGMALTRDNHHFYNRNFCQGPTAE
The experiment is described as follows: TLR9 inhibition reporter assay (HEK-Blue cells, SEAP reporter, ODN2006 stimulation). Format: cell-based. The conditions noted are these: HEK-Blue cells overexpressing human TLR9, ODN2006 5 nM. The method in brief: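 HEK-Blue cells overexpressing human TLR7, TLR8 or TLR9 carry a SEAP reporter driven by NF-κB/AP-1 sites. Compounds (0.05 nM–50 μM) were preincubated 30 min at room temperature, then cells were stimulated with gardiquimod 7.5 μM (TLR7), R848 15.9 μM (TLR8) or ODN2006 5 nM (TLR9) for 22 h at 37 °C.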

As a reminder, the IC50 is the point on the concentration scale where inhibition reaches its midpoint. High values mean weaker potency, low ones greater potency. Regarding `COc1ccc(-c2[nH]c3ccc(C4CCN(C(=O)CNC56CC7CC(CC(O)(C7)C5)C6)CC4)cc3c2C(C)C)cc1OC` [Example 218, 1-(4-(2-(3,4-dimethoxyphenyl)-3-isopropyl-1H-indol-5-yl)piperidin-1-yl)-2-(((1r,3s,5R,7S)-3-hydroxyadamantan-1-yl)amino)ethan-1-one], the 50% inhibitory concentration (IC50) at human TLR7 is 44 nM; at human TLR9, 1280 nM.
In the same order, the values of `COc1ccc(-c2[nH]c3ccc(C4CCN(C5CCN(C(C)C)CC5)CC4)cc3c2C)cc1OC` [Example 10, 2-(3,4-dimethoxyphenyl)-5-(1′-isopropyl-[1,4′-bipiperidin]-4-yl)-3-methyl-1H-indole] are 606 nM and 202 nM.
As for `CCc1c(-c2ccc(OC)c(OC)c2)[nH]c2ccc(C3CCN(C4CCN(Cc5ccsc5)CC4)CC3)cc12` [Example 142, 2-(3,4-dimethoxyphenyl)-3-ethyl-5-(1′-(thiophen-3-ylmethyl)-[1,4′-bipiperidin]-4-yl)-1H-indole], the IC50 against human TLR7 was 898 nM; at human TLR9 it was 133 nM.
On to `COc1ccc(-c2[nH]c3ccc(C4CCN(C(=O)CNC5CCC(N(C)C)CC5)CC4)cc3c2C(C)C)cc1OC` (stereo not drawn) [Example 215, 1-(4-(2-(3,4-dimethoxyphenyl)-3-isopropyl-1H-indol-5-yl)piperidin-1-yl)-2-((4-(dimethylamino)cyclohexyl)amino)ethan-1-one], for which the IC50 was found to be 36 nM at human TLR7 and 2020 nM at human TLR9.
With `CCc1c(-c2ccc(OC)c(OC)c2)[nH]c2ccc(C3CCN(C(C)=O)CC3)cc12` [Example 185, 1-(4-(2-(3,4-dimethoxyphenyl)-3-ethyl-1H-indol-5-yl)piperidin-1-yl)ethan-1-one], the IC50 on human TLR7 worked out at 273 nM; on human TLR9 it was 32400 nM.
Consider `COc1ccc(-c2[nH]c3ccc(C4CCN(C(=O)CNC5(CO)CCCC5)CC4)cc3c2C(C)C)cc1OC` [Example 213, 1-(4-(2-(3,4-dimethoxyphenyl)-3-isopropyl-1H-indol-5-yl)piperidin-1-yl)-2-((1-(hydroxymethyl)cyclopentyl)amino)ethan-1-one], for which the IC50 on human TLR7 was found to be 31 nM; against human TLR9 it was 2070 nM.
In the same order, the values of `CCN(CC)C(=O)CCN(C)CC(=O)N1CCC(c2ccc3[nH]c(-c4ccc(OC)c(OC)c4)c(C(C)C)c3c2)CC1` [Example 204, 3-((2-(4-(2-(3,4-dimethoxyphenyl)-3-isopropyl-1H-indol-5-yl)piperidin-1-yl)-2-oxoethyl)(methyl)amino)-N,N-diethylpropanamide] are 160 nM and 2000 nM.
In the same order, the values of `CCc1c(-c2ccc(OC)c(OC)c2)[nH]c2ccc(C3CCN(C4CCN(CC(C)C)CC4)CC3)cc12` [Example 123, 2-(3,4-dimethoxyphenyl)-3-ethyl-5-(1′-isobutyl-[1,4′-bipiperidin]-4-yl)-1H-indole-di-trifluoroacetic acid] are 398 nM and 170 nM.
For the molecule `CCc1c(-c2ccc(OC)c(OC)c2)[nH]c2ccc(C3CCN(C4CCN(Cc5cc(C)n(C)n5)CC4)CC3)cc12` [Example 144, 2-(3,4-dimethoxyphenyl)-5-(1′-((1,5-dimethyl-1H-pyrazol-3-yl)methyl)-[1,4′-bipiperidin]-4-yl)-3-ethyl-1H-indole], the IC50 was 473 nM at human TLR7 and 495 nM at human TLR9.
